From PMC8373216, “Development and Preclinical Evaluation of New Inhaled Lipoglycopeptides for the Treatment of Persistent Pulmonary Methicillin-Resistant Staphylococcus aureus Infections” (Antimicrobial Agents and Chemotherapy, 2021)
Values after ≈ are worked out from the molar mass of the structure shown. Where two headings read alike, the source gives them in different places.

Tests used:
[1] = type: physicochemical; conditions: pH 8
Protocol: 40 to the primary metabolite.
41 percent degradation is defined as follows:
[LLLLPPLL ] + [MMPPPPDDMM DDMMDDPPPP ]
45 Enzymes studied include :
108 Table S1: Enzyme hydrolysis of RV62 and RV94 was measured as a function of time in PBS (pH 8) at 37
109 °C. Control samples in the absence of enzyme were included as […]. Samples were analyzed
110 by HPLC detecting the parent RV derivative (RV62 or RV94).
RV Percent RV derivative remaining in HPLC chromatograph, % […]

[2] = system: MRSA ATCC BAA 1556 (USA300); assay: In-house broth microdilution MIC screening; type: cell-based, Staphylococcus aureus; conditions: Staphylococcus aureus; broth microdilution; read-out: MIC Value, MRSA ATCC BAA 1556
[3] = Single-dose nebulized nose-only inhalation PK in healthy rats; type: in vivo, rat; conditions: male, Sprague Dawley, rat, in vivo
Protocol: Rats were acclimated in the study facility for approximately 1 week prior to study start. Ten or eleven rats per cohort were loaded into the chamber at the time of dosing. […] An additional airflow set to 6 liters/min was admixed with the nebulizer output to further direct the test articles to the animals. […] The remaining port on the chamber was fit with an aerosol sampling filter for dose determination over a 5 min sampling period. The average dose delivered to the nose of each animal was calculated using an algorithm that was previously described ([49]). […] Animals were euthanized for collection of whole lungs and plasma at time points ranging from immediate postdose (IPD; approximately 30 min after dosing for nebulization) to 168 h postdose (7 days). Drugs were extracted from tissues using customized protein precipitation methods with an appropriate internal standard for each compound and transferred for analysis by LC-MS/MS (Sciex API4500 or API6500+ mass spectrometer [Sciex, Framingham, MA]). GraphPad Prism (La Jolla, CA) was used for statistical analyses and data plotting. […] The data were applied to a noncompartmental analysis after extravascular dosing input and fit to a linear up/log down model. Statistical analysis of in vitro intracellular and biofilm activity was based on a two-way ANOVA with a Bonferroni post test. In vivo statistical analysis was based on the Kolmogorov-Smirnov test.

MSSA ATCC 29213 = assay: In-house broth microdilution MIC screening; type: cell-based; conditions: Staphylococcus aureus; broth microdilution; read-out: MIC Value, MSSA ATCC 29213

In the case of `CCCCCCCCCCCC(=O)NCCNC1(C)CC(OC2C(Oc3c4cc5cc3Oc3ccc(cc3Cl)C(O)C3NC(=O)C(NC(=O)C5NC(=O)C(CC(N)=O)NC(=O)C(NC(=O)C(CC(C)C)NC)C(O)c5ccc(c(Cl)c5)O4)c4ccc(O)c(c4)-c4c(O)cc(O)cc4C(C(=O)O)NC3=O)OC(CO)C(O)C2O)OC(C)C1O` (stereo not drawn) [RV62], the “Percent RV derivative remaining in HPLC chromatograph” value (shortened to “Percent RV derivative remaining”) ([1]; 0 h) is reported as 97.14%, the “Percent RV derivative remaining” value ([1]; 0.5 h) is reported as 97.14% and the “Percent RV derivative remaining” value ([1]; 1 h) is reported as 97.38%. The “Percent RV derivative remaining” value ([1]; 2 h) was 97.07%, the MIC [2] was 0.016 µg/mL (≈ 9.55 nM) and the Pulmonary dose [3] was 0.15 mg/kg. The “Time to full conversion to hydrolysis product in the lung” value [3] was at most 24 h, the “Drug lung level at 120 h” value ([3]; 120 h) was 0.1% and the “Primary hydrolysis byproduct lung level at 120 h” value ([3]; 120 h) was 107%. For the same compound, the Kp ([3]; inhaled or intranasal) was 1550, the “Lung AUC0-∞” value ([3]; inhaled or intranasal) was 317 µg·h/g and the “Lung Cmax” value ([3]; inhaled or intranasal) was 30 µg/g. For the same compound, the “Lung t1/2” value ([3]; inhaled or intranasal) was 11 h, the “Plasma Cmax” value ([3]; inhaled or intranasal) was 0.02 µg/mL and the MIC (MSSA ATCC 29213) was 0.016 µg/mL (≈ 9.55 nM).
